Holding throughout (test): relative viability (nuclei count vs DMSO), 5 days (fraction); higher = more cells survive
Compound in one experiment: CC(C)CCN1c2nc(Nc3cc(F)c(O)c(F)c3)ncc2N(C)C(=O)C1C [BI-D1870]
The gist of the method: (§1)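 Vehicle-anchored 1536-well plates of lung cancer cell lines, held overnight at 37 °C, were pinned with five library-drug doses (not always all listed) spaced by √10. No medium change followed over the next 5 days, after which the cells were fixed, permeabilised and Hoechst-stained together and imaged at 4×. Nuclei were counted with MetaXpress, and viability is treated-well nuclei over vehicle-well nuclei, taken as a median across plates. Plates passed with control CV below 25% and at least one doubling.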

Compound in a further experiment: O=c1ncccn1[C@@H]1O[C@H](CO)[C@@H](O)[C@H]1O [Zebularine]
A digest of the protocol:
as §1

Compound in the experiment “Zebularine + Navitoclax”: O=c1ncccn1[C@@H]1O[C@H](CO)[C@@H](O)[C@H]1O [Zebularine] + CC1(C)CCC(c2ccc(Cl)cc2)=C(CN2CCN(c3ccc(C(=O)NS(=O)(=O)c4ccc(N[C@H](CCN5CCOCC5)CSc5ccccc5)c(S(=O)(=O)C(F)(F)F)c4)cc3)CC2)C1 [Navitoclax] (partner 0.5 µM)
A digest of the protocol:
(§2)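 Five library-drug doses in √10 steps were combined with a fixed anchor-drug dose, or a single drug was given alone, by pin tool to lung cancer cell lines in 1536-well plates the day after seeding. Nuclei were stained and counted after 5 days. Relative viability is the nuclei count in treated wells over that in vehicle wells, taken as the median of duplicate plates.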

Compound in the experiment “BI-D1870 + Trametinib”: CC(C)CCN1c2nc(Nc3cc(F)c(O)c(F)c3)ncc2N(C)C(=O)C1C [BI-D1870] + CC(=O)Nc1cccc(-n2c(=O)n(C3CC3)c(=O)c3c(Nc4ccc(I)cc4F)n(C)c(=O)c(C)c32)c1 [Trametinib] (partner 0.02 µM)
A digest of the protocol:
as §2

As for NCI-H2170, the relative viability came to 1.06 in the experiment with BI-D1870 (0.04 µM); 0.925 with BI-D1870 (0.1265 µM); 0.961 in the experiment with BI-D1870 (0.4 µM); 0.949 with BI-D1870 (1.265 µM); 0.843 with BI-D1870 (4 µM); 1.1 with Zebularine (1 µM). Besides, the relative viability in the experiment with Zebularine (3.162 µM) was found to be 1.01; in the experiment with Zebularine (10 µM), 0.933; with Zebularine (31.62 µM), 0.975; with Zebularine (100 µM) it was 0.693; in the experiment with Zebularine + Navitoclax (first compound 1 µM) it was 0.694; with Zebularine + Navitoclax (first compound 3.162 µM), 0.642. In addition, the relative viability with Zebularine + Navitoclax (first compound 10 µM) turned out to be 0.453; with Zebularine + Navitoclax (first compound 31.62 µM), 0.574; with Zebularine + Navitoclax (first compound 100 µM) it was 0.432; in the experiment with BI-D1870 + Trametinib (first compound 0.04 µM), 1; in the experiment with BI-D1870 + Trametinib (first compound 0.1265 µM), 0.829; with BI-D1870 + Trametinib (first compound 0.4 µM) it was 0.887. In addition, the relative viability with BI-D1870 + Trametinib (first compound 1.265 µM) was determined as 0.939; in the experiment with BI-D1870 + Trametinib (first compound 4 µM), 0.874.
Turning to NCI-H1395, the relative viability with BI-D1870 (0.04 µM) came out at 0.905; in the experiment with BI-D1870 (0.1265 µM) it was 0.822; with BI-D1870 (0.4 µM), 0.87; with BI-D1870 (1.265 µM) it was 0.988; with BI-D1870 (4 µM) it was 0.827; with Zebularine (1 µM), 0.929. Moreover, the relative viability turned out to be 0.86 with Zebularine (3.162 µM); 0.788 with Zebularine (10 µM); 0.676 with Zebularine (31.62 µM); 0.511 in the experiment with Zebularine (100 µM); 0.99 with Zebularine + Navitoclax (first compound 1 µM); 1.37 with Zebularine + Navitoclax (first compound 3.162 µM). The relative viability with Zebularine + Navitoclax (first compound 10 µM) worked out at 0.919; with Zebularine + Navitoclax (first compound 31.62 µM), 0.629; in the experiment with Zebularine + Navitoclax (first compound 100 µM), 0.473; in the experiment with BI-D1870 + Trametinib (first compound 0.04 µM), 1.09; with BI-D1870 + Trametinib (first compound 0.1265 µM), 0.972; with BI-D1870 + Trametinib (first compound 0.4 µM), 1.01. Further, the relative viability with BI-D1870 + Trametinib (first compound 1.265 µM) is 1.17; with BI-D1870 + Trametinib (first compound 4 µM), 0.978.
Regarding NCI-H838, the relative viability with BI-D1870 (0.04 µM) was 0.962; in the experiment with BI-D1870 (0.1265 µM), 0.892; with BI-D1870 (0.4 µM) it was 0.958; with BI-D1870 (1.265 µM), 1.07; with BI-D1870 (4 µM) it was 0.992; in the experiment with Zebularine (1 µM), 1.05. Besides, the relative viability in the experiment with Zebularine (3.162 µM) was 0.962; with Zebularine (10 µM), 0.753; in the experiment with Zebularine (31.62 µM), 0.692; in the experiment with Zebularine (100 µM) it was 0.352; in the experiment with Zebularine + Navitoclax (first compound 1 µM), 1.2; with Zebularine + Navitoclax (first compound 3.162 µM) it was 1.21. The relative viability amounted to 0.561 in the experiment with Zebularine + Navitoclax (first compound 10 µM); 0.815 with Zebularine + Navitoclax (first compound 31.62 µM); 0.403 with Zebularine + Navitoclax (first compound 100 µM); 0.597 with BI-D1870 + Trametinib (first compound 0.04 µM); 0.444 in the experiment with BI-D1870 + Trametinib (first compound 0.1265 µM); 0.536 with BI-D1870 + Trametinib (first compound 0.4 µM). The figures for the relative viability in the experiment with BI-D1870 + Trametinib (first compound 1.265 µM) and in the experiment with BI-D1870 + Trametinib (first compound 4 µM) were 0.667 and 0.523, respectively.
Consider CAL-12T, for which the relative viability in the experiment with BI-D1870 (0.04 µM) came to 1.14; with BI-D1870 (0.1265 µM), 0.87; with BI-D1870 (0.4 µM), 0.946; with BI-D1870 (1.265 µM), 0.97; in the experiment with BI-D1870 (4 µM), 0.682; with Zebularine (1 µM) it was 1.03. For the same cell line, the relative viability with Zebularine (3.162 µM) was determined as 0.871; with Zebularine (10 µM), 0.793; in the experiment with Zebularine (31.62 µM) it was 0.993; in the experiment with Zebularine (100 µM) it was 0.671; in the experiment with Zebularine + Navitoclax (first compound 1 µM), 1.53; in the experiment with Zebularine + Navitoclax (first compound 3.162 µM), 1.32. In addition, the relative viability in the experiment with Zebularine + Navitoclax (first compound 31.62 µM) is 1.28; with Zebularine + Navitoclax (first compound 100 µM), 0.918; with BI-D1870 + Trametinib (first compound 0.04 µM), 0.353; with BI-D1870 + Trametinib (first compound 0.1265 µM), 0.305; in the experiment with BI-D1870 + Trametinib (first compound 0.4 µM), 0.405; in the experiment with BI-D1870 + Trametinib (first compound 1.265 µM) it was 0.351. The relative viability in the experiment with BI-D1870 + Trametinib (first compound 4 µM) worked out at 0.311.

(Values after the supplement of paper PMC10307832.)
